Measurements taken from patent publication US7307166B1, “Oxpurine nucleosides and their congeners, and acyl, derivatives thereof, for improvement of hematopoiesis” (Wellstat Therapeutics Corporation, priority 1987, dated 2007).

Columns and labels:
Balb/C female mice [1] = assay: Hematopoietic recovery after cyclophosphamide in mice (spleen weight, blood cell counts); format: in vivo, mouse; settings: for Neutrophils / peripheral total white blood cells: Ex 37: day 7 after CP, 5 μmoles/mouse/day i.p. 6 days, vs saline
Protocol: Twenty-four hours later and each day thereafter for a total of 6 days, mice were given a 0.4 ml i.p. injection of either physiological saline (controls), guanine (5 μmoles/mouse/day), or guanosine (5 μmoles/mouse/day). On day 7 all 10 mice in each of the three groups were bled, and then sacrificed by cervical dislocation. Spleens were removed and weighed, and complete blood cell counts performed.
Twenty-four hours later and each day thereafter for a total of 6 days, mice were given a 0.4 ml i.p injection of either physiological saline (controls), Tween 80 (0.2%), guanosine (5 μmoles/mouse/day in 0.2% Tween 80), or 2.5 μmoles per mouse per day of one of the following acylated derivatives of guanosine in 0.2% Tween 80: triacetylguanosine, octanoylguanosine, lauroylguanosine, or palmitoylguanosine. On day 7 following CP administration all 10 animals from each of the 7 groups were bled, and then sacrificed by cervical dislocation. Spleens were removed and weighed, and complete blood counts performed.
Twenty-four hours later treatment was begun. Mice were given a 0.4 ml i.p. injection of either physiological saline (controls), Tween 80 (0.2%), or palmitoylguanosine (5 μmoles/mouse/day in 0.2% Tween 80). The timing of the treatments was varied within the groups. The control group was given saline on days 1-6. The mice receiving Tween 80 were treated either on days 1-4, 4-6 or 1-6. Palmitoylguanosine-treated mice were treated either on days 1-2, 1-4, 3-5, 4-6 or 1-6. If a group of mice received no Tween 80 or palmitoylguanosine on a given day, saline was administered by i.p. injection. Thus, there were 9 groups of 9 animals in all. On day 7 following CP administration all of the animals were bled and then sacrificed by cervical dislocation. Spleens were removed and weighed, and complete blood cell counts performed.
Twenty-four hours later and each day thereafter for a total of 6 days, mice were given a 0.4 ml i.p. injection of either physiological saline (controls), Tween 80 (0.5%), or one of three different doses of octanoylguanosine (0.5, 2.5, or 5 μmoles/mouse/day in 0.5% Tween 80). On day 7 following CP administration all 9 animals from each of the […] were bled and then sacrificed by cervical dislocation. Spleens were removed and weighed, and complete blood cell counts performed.
Twenty-four hours later and each day thereafter for a total of 6 days, mice were given a 0.4 ml i.p. injection of either physiological saline (controls), Tween 80 (0.5%), or octanoylguanosine (5.0 μmoles/mouse/day in 0.5% Tween 80). On day 7 following CP administration all 10 animals from each of the 3 groups were bled and then sacrificed by cervical dislocation. Spleens were removed, weighed, and fixed in 10% formalin for later histological examination. Complete blood cell counts were performed on the collected blood.
Twenty-four hours later and each day thereafter for a total of 6 days, mice were given a 0.4 ml i.p. injection of either physiological saline (controls), benzoylguanosine (2.5 μmoles/mouse/day in 0.2% Tween 80), or palmitoylguanosine (2.5 μmoles/mouse/day in 0.2% Tween 80). On days 7 and 10 following CP administration 8 animals from each of the 3 groups were bled and then were sacrificed by cervical dislocation. Spleens were removed and weighed, and complete blood cell counts performed.
Twenty four hours later and each day thereafter for a total of 4 or 6 days, mice were given a 0.4 ml i.p. injection of either physiological saline (controls), palmitoyldeoxyinosine (2.5 μmoles/mouse), or palmitoyl-xanthosine (2.5 μmoles/mouse). On days 5 and 7 following CP administration 6 of the 12 animals in each of the 3 groups were bled and then sacrificed by cervical dislocation. Spleens were removed and weighed, and complete blood cell counts performed.

Balb/C female mice [2] = assay: as above; format: in vivo, mouse
[3] = tested on: human myeloid leukemia cell line (HL-60); settings: incubation of HL-60 cells; cited from earlier work
[4] = tested on: mouse bone marrow cells in culture; settings: under stimulatory influence of serum from endotoxin-treated mice; cited from earlier work
[5] = tested on: rabbits treated with cyclophosphamide; settings: rabbit, in vivo; cited from earlier work
Balb/C female mice [6] = assay: Hematopoietic recovery after 5-fluorouracil in mice; format: in vivo, mouse
Protocol: 5-fluorouracil (5-FU) (150 mg/kg, i.p.) was administered to forty Balb/C female mice weighing approximately 20 grams each. Twenty-four hours later and each day thereafter for a total of 8 days, mice were given a 0.4 ml i.p. injection of either physiological saline (controls) or 5′-O-palmitoylguanosine (2.5 μmoles/mouse/day in 0.2% Tween 80). On days 7 and 14 following 5-FU administration half of the animals from each group were bled and then were sacrificed by cervical dislocation. Spleens were removed and weighed, and complete blood cells counts performed.
5-fluorouracil (5-FU) (150 mg/kg, i.p.) was administered to fifty-four Balb/C female mice weighing approximately 20 grams each. Twenty-four hours later and each day thereafter for a total of 7 days, mice were given a 0.4 ml i.p. injection of either physiological saline (controls) or palmitoylguanosine (2.5 μmoles/mouse/day in 0.2% Tween 80). On days 8, 10 and 12 following administration of 5-FU nine animals from each group were bled and then sacrificed by cervical dislocation. Spleens were removed and weighed, and complete blood cell counts performed.
Twenty-eight female Balb/C mice weighing approximately 20 grams each received a 0.4 ml i.p. injection of either physiological saline (controls), or palmitoyldeoxyguanosine (1 μmole/mouse) daily for three days. On the fourth day 5-fluorouracil (5-FU) (150 mg/kg, i.p.) was administered to all 28 of the animals. On days 5, 8 and 11 following 5-FU administration 4 (day 5) or 5 (days 8 and 11) animals from both groups were bled and then sacrificed by cervical dislocation. Spleens were removed and weighed, and complete blood cell counts performed. […]
Sixty female Balb/C mice weighing approximately 20 grams each were distributed into one of five treatment groups and treated once daily for three days by i.p. injection with 3′,5′-O—N^2-tripalmitoyl-2′-deoxyguanosine at a dose of either 1, 5, 10, 25, or 50 mg/kg/treatment in a Tween-DMSO vehicle (0.2% Tween-80 and 7.5% DMSO in physiological saline). Injection volume was 0.4 ml. An additional twelve animals (controls) received vehicle alone on those three days. On the fourth day all seventy-two animals received a single i.p. injection of 5-fluorouracil (5-FU) at a dose of 150 mg/kg. On days 7 and 10 following 5-FU administration six mice from each group were bled and then sacrificed by cervical dislocation. Six untreated mice were also bled and sacrificed to provide data on normal (basal) values. Spleens were removed and weighed, and complete blood cell counts performed.

[7] = tested on: Normal Balb/C female mice; assay: Hematopoiesis in normal mice; format: in vivo, mouse; settings: Ex 56: fifth day
Protocol: Normal, otherwise untreated, female Balb/C mice weighing approximately 20 grams each received a total of 4 or 9 0.4 ml intraperitoneal injections (one per day) of either Tween-80 (0.2%) (controls), palmitoylguanosine ([…]), or palmitoyldeoxyinosine ([…]). Twenty-four hours after the 4th or 9th treatment, groups of 5 or 6 animals from each of the 3 groups were bled and then sacrificed by cervical dislocation. Spleens were removed and weighed, and complete blood cell counts performed.
Normal Balb/C female mice weighing approximately 20 grams each were given a daily 0.4 ml i.p. injection of either physiological saline (controls), palmitoylguanosine (2.6 μmoles/mouse), palmitoyldeoxyguanosine (2.6 μmoles/mouse), monopalmitoylguanosine 2′,3′-acyclic dialcohol (2.6 μmoles/mouse), and palmitoyl-8-bromoguanosine (2.6 μmoles/mouse) for 4 days. On the fifth day all 3 animals in each of the 5 groups were bled and then sacrificed by cervical dislocation. Spleens were removed and weighed, and complete blood cell counts performed. Femoral bone marrow from each mouse was collected and a differential cell count performed on marrow smears.

F344 male rats = assay: Recovery of blood cell counts in rats after cyclophosphamide; format: in vivo, rat
Protocol: Cyclophosphamide (CP) (40 mg/kg, i.p.) was administered to 16 F344 male rats weighing approximately 200 grams each. Twenty-four hours later and each day thereafter rats were given a 0.5 ml i.p. injection of either physiological saline (controls), or palmitoyldeoxyguanosine at a dose of 10 μmoles/rat. On days 5, 7 and 10 following CP administration all 8 animals from both groups were bled and complete blood cell counts performed. On day 10 all of the rats were sacrificed and their spleens removed and weighed.

[8] = Ex 37: day 7 after CP 275 mg/kg i.p., 5 μmoles/mouse/day i.p. 6 days, vs saline
[9] = Ex 57: day 8 after 5-FU, pretreatment
[10] = Ex 57: day 11 after 5-FU, pretreatment
[11] = Ex 51: day 5 after CP, 2 μmoles/mouse
[12] = Ex 52: days 5 and 7 after CP, 0.2-2.0 μmoles/mouse, except 0.2 on day 5
[13] = Ex 53: day 5 after CP, palmitoylguanosine 2.0, palmitoyldeoxyguanosine 1.0 μmoles/mouse
[14] = Ex 53: day 7 after CP, palmitoylguanosine 1.0 and 2.0, palmitoyldeoxyguanosine 1.0 μmoles/mouse

For Nc1nc2nc[nH]c2c(=O)[nH]1 [guanine], the Neutrophils (Balb/C female mice [1]) was “significantly more”, the “peripheral total white blood cells” value (Balb/C female mice [1]) was “significantly more” and the spleen weight (Balb/C female mice [2]; [8]) was “significantly heavier spleens”. For the same compound, the “induced maturation into functional neutrophils” value [3] was “prevented”.

In the case of Nc1nc2c(ncn2[C@@H]2O[C@H](COP(=O)(O)O)[C@@H](O)[C@H]2O)c(=O)[nH]1 [5′-guanosine monophosphate], the “number of colonies formed” value [4] is given as “inactive”.

In the case of OC[C@H]1O[C@@H](n2cnc3c(O)ncnc32)[C@H](O)[C@@H]1O [inosine, reference compound], the “induced maturation into functional neutrophils” value [3] is listed as “no effect”.

For polyadenosine monophosphate, the leukocyte formation [5] is given as “failed to stimulate”.

With “Palmitoyl-2′-Deoxyguanosine [palmitoyldeoxyguanosine]” the platelet counts (Balb/C female mice [6]; Ex 57: day 5 after 5-FU, pretreatment 1 μmole/mouse i.p. daily 3 days) was “significantly elevated”, the platelet counts (Balb/C female mice [6]; [9]) was “significantly higher” and the total neutrophil counts (Balb/C female mice [6]; [9]) was “significantly higher”. For the same compound, the spleen weight (Balb/C female mice [6]; Ex 57: day 8 after 5-FU, pretreatment 1 μmole/mouse) was “significantly higher”, the lymphocyte counts (Balb/C female mice [6]; [10]) was “significantly higher” and the platelet counts (Balb/C female mice [6]; [10]) was “significantly higher”. For the same compound, the spleen weights (Balb/C female mice [6]; [10]) was “significantly higher”, the total neutrophil counts (Balb/C female mice [6]; [10]) was “significantly higher” and the “total white blood cell counts” value (Balb/C female mice [6]; [10]) was “significantly higher”. The “number of myelocytes (femoral bone marrow)” value ([7]; 2.6 μmoles/mouse daily 4 days) was “significantly greater”, the spleen weight ([7]; 2.6 μmoles/mouse i.p. daily 4 days) was “significantly elevated” and the Lymphocytes (F344 male rats; day 10 after CP, 10 μmoles/rat) was “significantly elevated”. The Platelets (F344 male rats; day 10 after CP, 10 μmoles/rat) was “significantly elevated”, the spleen weight (F344 male rats; day 10 after CP, 10 μmoles/rat) was “significantly elevated” and the “white blood cell counts” value (F344 male rats; days 5, 7 and 10 after CP 40 mg/kg, 10 μmoles/rat i.p. daily) was “significantly elevated”. For the same compound, the total neutrophil counts (F344 male rats; days 5, 7 and 10 after CP, 10 μmoles/rat) was “significantly elevated”, the total neutrophil counts (Balb/C female mice [2]; [11]) was “significantly elevated” and the “white blood cell counts” value (Balb/C female mice [2]; [11]) was “significantly elevated”. For the same compound, the spleen weight (Balb/C female mice [2]; Ex 51: day 5 after CP, 2 μmoles/mouse i.p. daily, vs Tween-80) was “significantly elevated”, the spleen weight (Balb/C female mice [2]; Ex 52: days 5 and 7 after CP, 0.2, 0.4, 1.0, 2.0 μmoles/mouse, except 0.2 on day 5) was “significantly elevated” and the total neutrophil counts (Balb/C female mice [2]; [12]) was “significantly elevated”. For the same compound, the “white blood cell counts” value (Balb/C female mice [2]; [12]) was “significantly elevated”, the spleen weight (Balb/C female mice [2]; [13]) was “significantly elevated” and the total neutrophil counts (Balb/C female mice [2]; [13]) was “significantly elevated”. The “white blood cell counts” value (Balb/C female mice [2]; [13]) was “significantly elevated”, the spleen weight (Balb/C female mice [2]; [14]) was “significantly elevated” and the total neutrophil counts (Balb/C female mice [2]; [14]) was “significantly elevated”. For the same compound, the “white blood cell counts” value (Balb/C female mice [2]; [14]) was “significantly elevated”, the “potency in elevating spleen weight and cell counts vs palmitoylguanosine” value (Balb/C female mice [2]; Ex 53: vs the same or a 2-fold greater dose of palmitoylguanosine) was “more potent” and the spleen weight (Balb/C female mice [2]; Ex 54: day 5 after CP, doses of 0.2 μmoles/mouse or greater) was “significantly elevated”. For the same compound, the “white blood cell counts” value (Balb/C female mice [2]; Ex 54: day 5 after CP, doses of 0.4 μmoles/mouse or greater) was “significantly elevated”, the “white blood cell counts” value (Balb/C female mice [2]; Ex 54: day 7 after CP, all doses 0.04-0.8 μmoles/mouse) was “statistically significant differences” and the spleen weight (Balb/C female mice [2]; Ex 54: day 7 after CP, all doses except 0.04 μmoles/mouse) was “significantly elevated”. The total neutrophil counts (Balb/C female mice [2]; Ex 54: days 5 and 7 after CP, all 6 doses 0.04-0.8 μmoles/mouse) was “significantly elevated”.

For polyguanosine monophosphate, the leukocyte formation [5] is given as “failed to stimulate”.

In the case of Nc1nc2c(ncn2[C@@H]2O[C@@H]3COP(=O)(O)O[C@H]3[C@H]2O)c(=O)[nH]1 [cGMP, 3′,5′-cyclic guanosine monophosphate], the “number of colonies formed” value [4] is listed as “increase”.

In the case of Nc1nc2c(ncn2[C@@H]2O[C@H](CO)[C@@H](O)[C@H]2O)c(=O)[nH]1 [guanosine], the Neutrophils (Balb/C female mice [1]) is reported as “significantly more”, the “peripheral total white blood cells” value (Balb/C female mice [1]) is reported as “significantly more” and the spleen weight (Balb/C female mice [1]; Ex 38: day 7 after CP, guanosine 5, acyl derivatives 2.5 μmoles/mouse/day in 0.2% Tween 80 i.p. 6 days, Tween 80 0.2%) is reported as “No significant difference”. For the same compound, the spleen weight (Balb/C female mice [2]; [8]) was “significantly heavier spleens” and the “induced maturation into functional neutrophils” value [3] was “prevented”.
